This passage reports EC50 results from patent US8536214B2, “Indane derivatives as AMPA receptor modulators” (priority 2008, dated 2013).

The assay deals with T1, AMPA (GluR1) receptor (Homo sapiens, UniProt P42261).
T1 construct: expressed in transfected cells; host or cells: HEK cells (HEK.GluR1(i)), kept under hygromycin selection
Put plainly: Ca2+ influx fluorescence assay (FLEXstation, Fluo-3). In kind it is cell-based. The following applies: HEK.GluR1(i) cells, glutamate +/- test compound, Ca2+ influx measured with fluo3; read-out: EC50, positive modulation of the AMPA receptor. An excerpt:
The compounds in this invention may be tested using a biological assay which measures Ca^2+ influx mediated through positive modulation of the AMPA (GluR1) receptor using standard techniques in the art such as, but not limited to, a FLEXstation (manufactured by Molecular Devices, Sunnyvale, Calif.). An optical readout using fluorescent probes is employed to measure ion channel dependent changes in intracellular ion concentration or membrane potential. The assay utilises the Ca^2+ conductance of functional homomeric GluR1(i) AMPA receptors to generate glutamate-dependent Ca^2+ responses. Influx of Ca^2+ through the ion channel is measured indirectly through an increase in intracellular Ca^2+ levels using the calcium sensitive dye such as, but not limited to, Fluo-3 (Molecular Devices, Sunnyvale, Calif.) in FLEXstation. A positive AMPA receptor modulator, in the presence of glutamate, will result in an influx of Ca^2+ through the ion channel which can be measured indirectly through an increase in intracellular Ca2+ levels using the calcium sensitive dye Fluo-3 in FLEXstation.
HEK.GluR1(i) cells were maintained in DMEM supplemented with 10% fetaclone II, 1% non-essential amino acids and 150 μg/mL hygromycin, at 37° C./5% CO2. […]

Molecules are shown by their SMILES.

T1 sequence (P42261 19-906 isoform P42261-2 limits assumed, species assumed): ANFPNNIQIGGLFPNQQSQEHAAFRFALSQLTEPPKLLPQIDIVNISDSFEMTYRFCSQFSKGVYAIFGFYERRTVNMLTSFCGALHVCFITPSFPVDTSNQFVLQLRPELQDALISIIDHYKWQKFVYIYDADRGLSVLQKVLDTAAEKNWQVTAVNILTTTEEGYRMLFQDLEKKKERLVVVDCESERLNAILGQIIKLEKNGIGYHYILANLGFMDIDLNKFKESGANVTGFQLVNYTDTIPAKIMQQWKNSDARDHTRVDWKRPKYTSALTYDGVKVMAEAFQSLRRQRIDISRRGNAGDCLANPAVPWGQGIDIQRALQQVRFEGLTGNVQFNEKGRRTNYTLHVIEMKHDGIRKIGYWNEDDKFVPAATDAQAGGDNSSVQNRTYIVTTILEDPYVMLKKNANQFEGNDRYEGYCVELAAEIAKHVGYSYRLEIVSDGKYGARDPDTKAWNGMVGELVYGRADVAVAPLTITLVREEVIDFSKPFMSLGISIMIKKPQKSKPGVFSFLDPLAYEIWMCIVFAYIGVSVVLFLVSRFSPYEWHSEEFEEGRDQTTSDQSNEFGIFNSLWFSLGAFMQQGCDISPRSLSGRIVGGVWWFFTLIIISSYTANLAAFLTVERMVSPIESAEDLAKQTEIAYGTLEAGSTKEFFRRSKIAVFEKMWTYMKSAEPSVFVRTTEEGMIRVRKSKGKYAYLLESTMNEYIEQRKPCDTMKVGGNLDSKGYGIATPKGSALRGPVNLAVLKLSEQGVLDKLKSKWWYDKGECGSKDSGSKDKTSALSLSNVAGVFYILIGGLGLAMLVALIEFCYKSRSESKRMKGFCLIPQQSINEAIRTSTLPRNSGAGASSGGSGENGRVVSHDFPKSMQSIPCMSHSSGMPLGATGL

A word on the EC50: it is the concentration that produces a half-maximal response. On to `O=S(=O)(N[C@H]1Cc2ccc(Cn3cc(CO)c(C(F)(F)F)n3)cc2C1)c1ccco1` [Example 18, (S)—N-(5-((4-(hydroxymethyl)-3-(trifluoromethyl)-1H-pyrazol-1-yl)methyl)-2,3-dihydro-1H-inden-2-yl)furan-2-sulfonamide], for which the 50% effective concentration (EC50) came out at 2500 nM.
